Experimental data published in PubChem BioAssay (NCI).
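Following 48 hours of exposure in 96-well plates, responses at five concentrations were used to interpolate endpoints linearly. GI50 marks 50% less growth. TGI: concentration producing complete growth inhibition.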

What was measured:
Experiment in all cases: NCI-60 cell line screen, 48 h
SF-268 CNS = system: SF-268 CNS
OVCAR-3 ovarian = system: OVCAR-3 ovarian
HT29 colon = system: HT29 colon
SK-MEL-28 melanoma = system: SK-MEL-28 melanoma
CAKI-1 renal = system: CAKI-1 renal
A549 NSCLC = system: A549 NSCLC
HS 578T breast = system: HS 578T breast
SF-295 CNS = system: SF-295 CNS
SN12C renal = system: SN12C renal
COLO 205 colon = system: COLO 205 colon
HOP-62 NSCLC = system: HOP-62 NSCLC
ACHN renal = system: ACHN renal
M14 melanoma = system: M14 melanoma
HCT-116 colon = system: HCT-116 colon
UO-31 renal = system: UO-31 renal
MCF7 breast = system: MCF7 breast
DU-145 prostate = system: DU-145 prostate
RPMI-8226 leukemia = system: RPMI-8226 leukemia
NCI-H522 lung = system: NCI-H522 lung
LOX IMVI melanoma = system: LOX IMVI melanoma
HOP-92 NSCLC = system: HOP-92 NSCLC
OVCAR-4 ovarian = system: OVCAR-4 ovarian
U251 CNS = system: U251 CNS
SK-MEL-5 melanoma = system: SK-MEL-5 melanoma
NCI-H460 lung = system: NCI-H460 lung
OVCAR-5 ovarian = system: OVCAR-5 ovarian
UACC-257 melanoma = system: UACC-257 melanoma
T-47D breast = system: T-47D breast
KM12 colon = system: KM12 colon
MDA-MB-231 breast = system: MDA-MB-231 breast
MDA-MB-435 = system: MDA-MB-435
SW-620 colon = system: SW-620 colon
SK-OV-3 ovarian = system: SK-OV-3 ovarian
SF-539 CNS = system: SF-539 CNS
NCI/ADR-RES ovarian = system: NCI/ADR-RES ovarian
786-0 renal = system: 786-0 renal
SR leukemia = system: SR leukemia
SNB-19 CNS = system: SNB-19 CNS
SNB-75 CNS = system: SNB-75 CNS
MALME-3M melanoma = system: MALME-3M melanoma
RXF 393 renal = system: RXF 393 renal
PC-3 prostate = system: PC-3 prostate
OVCAR-8 ovarian = system: OVCAR-8 ovarian
EKVX NSCLC = system: EKVX NSCLC
NCI-H226 lung = system: NCI-H226 lung
UACC-62 melanoma = system: UACC-62 melanoma
HCC-2998 colon = system: HCC-2998 colon
NCI-H23 lung = system: NCI-H23 lung
IGROV1 ovarian = system: IGROV1 ovarian
SK-MEL-2 melanoma = system: SK-MEL-2 melanoma
TK-10 renal = system: TK-10 renal
HCT-15 colon = system: HCT-15 colon
BT-549 breast = system: BT-549 breast
A498 renal = system: A498 renal

COc1nc(=O)n(C2C=CC(=O)O2)cc1F (stereo not drawn)
GI50 (SF-268 CNS): 15.5 µM
TGI (SF-268 CNS): 37.3 µM
GI50 (OVCAR-3 ovarian): 3.26 µM
TGI (OVCAR-3 ovarian): 11.2 µM
GI50 (HT29 colon): 4.63 µM
TGI (HT29 colon): 16.7 µM
GI50 (SK-MEL-28 melanoma): 6.92 µM
TGI (SK-MEL-28 melanoma): 20.1 µM
GI50 (CAKI-1 renal): 2.67 µM
TGI (CAKI-1 renal): 8.7 µM
GI50 (A549 NSCLC): 25.9 µM
TGI (A549 NSCLC): 87.3 µM
GI50 (HS 578T breast): 13.4 µM
TGI (HS 578T breast): 40.8 µM
GI50 (SF-295 CNS): 22.9 µM
TGI (SF-295 CNS): 66.1 µM
GI50 (SN12C renal): 11.6 µM
TGI (SN12C renal): 25.7 µM
GI50 (COLO 205 colon): 1.71 µM
TGI (COLO 205 colon): 3.62 µM
GI50 (HOP-62 NSCLC): 29.7 µM
TGI (HOP-62 NSCLC): 81.2 µM
GI50 (ACHN renal): 2.11 µM
TGI (ACHN renal): 5.45 µM
GI50 (M14 melanoma): 5.82 µM
TGI (M14 melanoma): 20.6 µM
GI50 (HCT-116 colon): 2.05 µM
TGI (HCT-116 colon): 4.81 µM
GI50 (UO-31 renal): 5.18 µM
TGI (UO-31 renal): 18.3 µM
GI50 (MCF7 breast): 2.3 µM
TGI (MCF7 breast): 10.9 µM
GI50 (DU-145 prostate): 11.1 µM
TGI (DU-145 prostate): 28.2 µM
GI50 (RPMI-8226 leukemia): 3.26 µM
TGI (RPMI-8226 leukemia): 13.4 µM
GI50 (NCI-H522 lung): 2.33 µM
TGI (NCI-H522 lung): 8.72 µM
GI50 (LOX IMVI melanoma): 10.9 µM
TGI (LOX IMVI melanoma): 22.9 µM
GI50 (HOP-92 NSCLC): 1.85 µM
TGI (HOP-92 NSCLC): 11.7 µM
GI50 (OVCAR-4 ovarian): 3.09 µM
TGI (OVCAR-4 ovarian): 15.5 µM
GI50 (U251 CNS): 14.6 µM
TGI (U251 CNS): 29.1 µM
GI50 (SK-MEL-5 melanoma): 4.91 µM
TGI (SK-MEL-5 melanoma): 18.6 µM
GI50 (NCI-H460 lung): 12.5 µM
TGI (NCI-H460 lung): 28.7 µM
GI50 (OVCAR-5 ovarian): 15.2 µM
TGI (OVCAR-5 ovarian): 28.6 µM
GI50 (UACC-257 melanoma): 11.6 µM
TGI (UACC-257 melanoma): 31.4 µM
GI50 (T-47D breast): 2.24 µM
TGI (T-47D breast): 7.24 µM
GI50 (KM12 colon): 11.7 µM
TGI (KM12 colon): 23.9 µM
GI50 (MDA-MB-231 breast): 12.7 µM
TGI (MDA-MB-231 breast): 25.9 µM
GI50 (MDA-MB-435): 5.23 µM
TGI (MDA-MB-435): 27.6 µM
GI50 (SW-620 colon): 4.19 µM
TGI (SW-620 colon): 15.8 µM
GI50 (SK-OV-3 ovarian): 25.8 µM
TGI (SK-OV-3 ovarian): 62.3 µM
GI50 (SF-539 CNS): 2.22 µM
TGI (SF-539 CNS): 5.77 µM
GI50 (NCI/ADR-RES ovarian): 10.1 µM
TGI (NCI/ADR-RES ovarian): 37.4 µM
GI50 (786-0 renal): 12.1 µM
TGI (786-0 renal): 25.1 µM
GI50 (SR leukemia): 1.87 µM
TGI (SR leukemia): 5.86 µM
GI50 (SNB-19 CNS): 22.3 µM
TGI (SNB-19 CNS): 57 µM
GI50 (SNB-75 CNS): 14.3 µM
TGI (SNB-75 CNS): 43.1 µM
GI50 (MALME-3M melanoma): 1.8 µM
TGI (MALME-3M melanoma): 6.95 µM
GI50 (RXF 393 renal): 1.94 µM
TGI (RXF 393 renal): 5.03 µM
GI50 (PC-3 prostate): 19.8 µM
TGI (PC-3 prostate): 62.4 µM
GI50 (OVCAR-8 ovarian): 23.9 µM
TGI (OVCAR-8 ovarian): > 100 µM
GI50 (EKVX NSCLC): 11.3 µM
TGI (EKVX NSCLC): > 100 µM
GI50 (NCI-H226 lung): 16.9 µM
TGI (NCI-H226 lung): 56.6 µM
GI50 (UACC-62 melanoma): 5.53 µM
TGI (UACC-62 melanoma): 18.7 µM
GI50 (HCC-2998 colon): 12.9 µM
TGI (HCC-2998 colon): 25.5 µM
GI50 (NCI-H23 lung): 8.06 µM
TGI (NCI-H23 lung): 25.5 µM
GI50 (IGROV1 ovarian): 8.69 µM
TGI (IGROV1 ovarian): 23.2 µM
GI50 (SK-MEL-2 melanoma): 16.5 µM
TGI (SK-MEL-2 melanoma): 54.1 µM
GI50 (TK-10 renal): 2.64 µM
TGI (TK-10 renal): 12.2 µM
GI50 (HCT-15 colon): 2.59 µM
TGI (HCT-15 colon): 12 µM
GI50 (BT-549 breast): 8.29 µM
TGI (BT-549 breast): 24.1 µM
GI50 (A498 renal): 16.2 µM
TGI (A498 renal): 38.1 µM
